Consider ten molecules from ChEMBL document CHEMBL1201862, “PubChem BioAssay data set” (2004).

Some test systems named below: ACHN; SN12C; SK-MEL-2; HOP-92; HT-29; Hs-578T; M14; MCF7; OVCAR-8; SW-620; 786-0; MDA-MB-231; NCI-H226; CCRF-CEM; LOX IMVI; CAKI-1; OVCAR-5; HL-60; KM12; A549.
What all share (assay): growth of human tumour cells (NCI), 48 h

The structures appear in SMILES notation.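 Method: 48-hour compound exposure of cells in 96-well plates, five concentrations, linear interpolation of endpoints. Here, GI50 denotes the concentration required for 50% inhibition of growth.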 Active and inactive are the calls of the source. Cut-off read from the data, not from the text of the source: active = GI50 up to about 1.1 µM and inactive = higher.

As to `O=C1N/C(=N\N=C\c2ccccc2)C(c2ccccc2)O1` (stereo not given), the GI50 was 53.5 µM (inactive) in the assay on ACHN; 71.1 µM (inactive) in the assay with SN12C; > 100 µM (inactive) with SK-MEL-2; > 100 µM (inactive) in the assay with HOP-92; 53 µM (inactive) in the assay on HT-29; > 100 µM (inactive) in the assay on Hs-578T. Also, the GI50 with M14 was 54 µM (inactive); in the assay on MCF7, 68.4 µM (inactive); with OVCAR-8, 47.5 µM (inactive); with SW-620 it was 59.4 µM (inactive); in the assay with 786-0, 47.9 µM (inactive); with MDA-MB-231, 88.5 µM (inactive). For the same molecule, the GI50 in the assay with NCI-H226 is 30.9 µM (inactive); in the assay on CCRF-CEM it was 12.7 µM (inactive); in the assay on LOX IMVI, 42.8 µM (inactive); in the assay on CAKI-1, 74.1 µM (inactive); in the assay with OVCAR-5, > 100 µM (inactive); in the assay on HL-60 it was 30.1 µM (inactive). For the same molecule, the GI50 was > 100 µM (inactive) in the assay with KM12 and 45.3 µM (inactive) with A549.

For `C/C(=N\NC(=S)Nc1ccc(Cl)cc1)c1nc2cccnc2[nH]1`, the GI50 in the assay with ACHN is 0.822 µM (active); with SN12C it was 2.81 µM (inactive); in the assay with SK-MEL-2, 10.5 µM (inactive); in the assay on HOP-92, 1.27 µM (inactive); in the assay on HT-29, 2.56 µM (inactive); in the assay with Hs-578T, 15.1 µM (inactive). Also, the GI50 with M14 was 1.48 µM (inactive); with MCF7 it was 2.69 µM (inactive); in the assay on OVCAR-8 it was 1.45 µM (inactive); in the assay with SW-620, 4.93 µM (inactive); in the assay on 786-0, 2.17 µM (inactive); with MDA-MB-231, 6.04 µM (inactive). Further, the GI50 was 1.77 µM (inactive) with NCI-H226; 0.492 µM (active) in the assay with CCRF-CEM; 1.23 µM (inactive) in the assay on LOX IMVI; 1.53 µM (inactive) in the assay on CAKI-1; 2.29 µM (inactive) with OVCAR-5; 0.818 µM (active) in the assay with HL-60. Besides, the results for the GI50 with KM12 and in the assay on A549 were 1.23 µM (inactive) and 2.38 µM (inactive), respectively.

Take `O=C(O)C1C2c3ccccc3C(c3ccccc32)C1C(=O)NCC1CC1` (stereo not given): the GI50 in the assay with ACHN is 78 µM (inactive); in the assay with SN12C, 55.2 µM (inactive); in the assay on SK-MEL-2, 91.6 µM (inactive); with HOP-92 it was 70.5 µM (inactive); in the assay on HT-29, 71.6 µM (inactive); in the assay with Hs-578T it was 63.5 µM (inactive). The GI50 in the assay with M14 was 61.9 µM (inactive); in the assay on MCF7 it was 52.1 µM (inactive); in the assay with OVCAR-8, 55 µM (inactive); with SW-620, 50.2 µM (inactive); with 786-0, > 100 µM (inactive); in the assay with MDA-MB-231, > 100 µM (inactive). Moreover, the GI50 was 60.4 µM (inactive) with NCI-H226; 31.2 µM (inactive) with CCRF-CEM; 65.8 µM (inactive) with LOX IMVI; > 100 µM (inactive) in the assay with CAKI-1; > 100 µM (inactive) in the assay on OVCAR-5; 24.8 µM (inactive) in the assay with HL-60. Also, the GI50 in the assay on KM12 is 55.3 µM (inactive); with A549, 62.2 µM (inactive).

With `COc1ccc(/C(C)=N/OC(=O)c2c(-c3ccccc3Cl)noc2C)cc1CN1CCOCC1`, the GI50 in the assay on ACHN was 15.7 µM (inactive); in the assay on SN12C, 18.7 µM (inactive); in the assay with SK-MEL-2, 16.4 µM (inactive); in the assay with HOP-92, 24.2 µM (inactive); with HT-29, 18.3 µM (inactive); with Hs-578T it was 28.9 µM (inactive). Also, the GI50 is 14 µM (inactive) in the assay with M14; 20.8 µM (inactive) in the assay on MCF7; 29.3 µM (inactive) in the assay on OVCAR-8; 43.1 µM (inactive) in the assay on SW-620; 24.5 µM (inactive) in the assay on 786-0; 20 µM (inactive) in the assay with MDA-MB-231. Besides, the GI50 with NCI-H226 is 88.1 µM (inactive); in the assay with CCRF-CEM, 66.7 µM (inactive); in the assay on LOX IMVI it was 14.9 µM (inactive); with CAKI-1 it was 20.7 µM (inactive); in the assay with OVCAR-5, 12.8 µM (inactive); in the assay with HL-60 it was 17.1 µM (inactive). In addition, the results for the GI50 in the assay with KM12 and in the assay on A549 were 22.4 µM (inactive) and 19.1 µM (inactive), respectively.

Regarding `O=C(c1ccccc1)C(Nc1ccc2ccccc2c1)c1ccccc1` (stereo not given), the GI50 is 48.8 µM (inactive) in the assay with ACHN; 26.9 µM (inactive) in the assay with SN12C; 14.2 µM (inactive) with SK-MEL-2; 41.7 µM (inactive) with HOP-92; 24.5 µM (inactive) in the assay with HT-29; 40.2 µM (inactive) in the assay on Hs-578T. Moreover, the GI50 with M14 was 31.3 µM (inactive); in the assay with MCF7 it was 12.7 µM (inactive); with OVCAR-8 it was 42 µM (inactive); in the assay on SW-620, 27.7 µM (inactive); with 786-0 it was 36.7 µM (inactive); with MDA-MB-231, 28.8 µM (inactive). For the same molecule, the GI50 in the assay on NCI-H226 is > 60.7 µM (inactive); with CCRF-CEM it was 13.7 µM (inactive); with LOX IMVI, 35.3 µM (inactive); in the assay on CAKI-1, > 100 µM (inactive); in the assay on OVCAR-5 it was > 52.7 µM (inactive); with HL-60 it was 13.1 µM (inactive). Further, the GI50 was 19.8 µM (inactive) in the assay with KM12 and 33.3 µM (inactive) with A549.

Regarding `CCOC(=O)C(Cl)(NC(=O)c1ccc(F)cc1)C(F)(F)F` (stereo not given), the GI50 in the assay on ACHN, in the assay on SN12C, in the assay on SK-MEL-2, with HOP-92, with HT-29 and with Hs-578T was > 100 µM (inactive) throughout. In addition, the GI50 with M14, in the assay on MCF7, in the assay on OVCAR-8, in the assay on SW-620, in the assay on 786-0 and with MDA-MB-231 was > 100 µM (inactive) throughout. The GI50 with NCI-H226, in the assay on CCRF-CEM, with LOX IMVI, in the assay with CAKI-1, with OVCAR-5 and with HL-60 was > 100 µM (inactive) in each case. For the same molecule, the GI50 is 39.2 µM (inactive) in the assay with KM12 and > 100 µM (inactive) in the assay with A549.

As for `COc1ccc(OC)c2c1C[C@@H]1C(C#N)N3[C@H](Cc4c(OC)ccc(OC)c4[C@@H]3C)C(=O)N1[C@H]2C` (stereo not given in full), the GI50 in the assay with ACHN is 2.8 µM (inactive); with SN12C, 4.42 µM (inactive); with SK-MEL-2, 2.16 µM (inactive); in the assay with HOP-92, 2.06 µM (inactive); in the assay with HT-29 it was 8.05 µM (inactive); with Hs-578T it was 4.42 µM (inactive). In addition, the GI50 in the assay on M14 is 2.67 µM (inactive); with MCF7 it was 3.91 µM (inactive); in the assay with OVCAR-8 it was 2.38 µM (inactive); with SW-620, 2.86 µM (inactive); with 786-0, 3.01 µM (inactive); in the assay with MDA-MB-231, 2.08 µM (inactive). Besides, the GI50 was 13.5 µM (inactive) in the assay on NCI-H226; 1.9 µM (inactive) in the assay on CCRF-CEM; 2.44 µM (inactive) with LOX IMVI; 4.72 µM (inactive) with CAKI-1; 8.09 µM (inactive) with OVCAR-5; 1.85 µM (inactive) with HL-60. Further, the GI50 is 2.77 µM (inactive) in the assay on KM12 and 9.53 µM (inactive) with A549.

Take `CCCCCCCCCCCCC1NC(=N)NC2(CCCO2)C1C(=O)OC` (stereo not given): the GI50 is 10.4 µM (inactive) in the assay with ACHN; 8.02 µM (inactive) in the assay with SN12C; 4.29 µM (inactive) in the assay with SK-MEL-2; 5.09 µM (inactive) with HOP-92; 1.92 µM (inactive) in the assay with HT-29; 2.72 µM (inactive) with Hs-578T. For the same molecule, the GI50 with M14 was 3.33 µM (inactive); in the assay with MCF7, 2.9 µM (inactive); in the assay with OVCAR-8 it was 4.68 µM (inactive); in the assay on SW-620 it was 1.97 µM (inactive); with 786-0, 4.24 µM (inactive); in the assay with MDA-MB-231 it was 4.12 µM (inactive). Also, the GI50 in the assay with NCI-H226 was 14.6 µM (inactive); in the assay with CCRF-CEM, 2.06 µM (inactive); in the assay with LOX IMVI, 1.69 µM (inactive); in the assay on CAKI-1, 12.8 µM (inactive); with OVCAR-5, 8.17 µM (inactive); in the assay with HL-60 it was 1.53 µM (inactive). Besides, the GI50 in the assay with KM12 was 1.84 µM (inactive); with A549, 13.1 µM (inactive).

In the case of `CC1CCC(=O)C(C(=O)CC2CC(=O)N(C)C(=O)C2)C1` (stereo not given), the GI50 with ACHN, in the assay with SN12C, in the assay with SK-MEL-2, in the assay on HOP-92, in the assay on HT-29 and in the assay with Hs-578T was > 100 µM (inactive) throughout. Further, the GI50 in the assay on M14, with MCF7, with OVCAR-8, with SW-620, in the assay on 786-0 and with MDA-MB-231 was > 100 µM (inactive) in each case. In addition, the GI50 in the assay with NCI-H226, in the assay on CCRF-CEM, in the assay with LOX IMVI, with CAKI-1, in the assay on OVCAR-5 and with HL-60 was > 100 µM (inactive) each time. The GI50 in the assay with KM12 and in the assay on A549 was > 100 µM (inactive) throughout.

`CNc1ccc(-c2nc3cc(C)ccc3o2)cc1`: the GI50 with ACHN is 57.3 µM (inactive); with SN12C, > 100 µM (inactive); in the assay with SK-MEL-2 it was > 100 µM (inactive); with HOP-92 it was 84.9 µM (inactive); in the assay on HT-29, > 100 µM (inactive); with Hs-578T, 64.6 µM (inactive). For the same molecule, the GI50 in the assay on M14 is > 100 µM (inactive); in the assay with MCF7, > 100 µM (inactive); in the assay with OVCAR-8, 58.1 µM (inactive); in the assay on SW-620, > 100 µM (inactive); in the assay on 786-0 it was 47.3 µM (inactive); with MDA-MB-231, 40.1 µM (inactive). Moreover, the GI50 is 45.3 µM (inactive) with NCI-H226; > 100 µM (inactive) in the assay on CCRF-CEM; > 100 µM (inactive) in the assay with LOX IMVI; > 100 µM (inactive) with CAKI-1; > 100 µM (inactive) in the assay on OVCAR-5; > 100 µM (inactive) in the assay on HL-60. In addition, the GI50 in the assay on KM12 and in the assay on A549 was > 100 µM (inactive) in each case.
